Laboratory results as given in patent US20240150313A1, “TRI-SUBSTITUTED INDOLE BINDING FUNCTION 3 (BF3) COMPOUNDS AND METHODS FOR THEIR USE” (The University of British Columbia, priority 2021, published 2024).
“Also recorded” adds a separate entry of the source. One block for each compound: values may come before it.

Tests used:
[1] = test system: AR-mediated PSA expression in LNCaP cells; assay: Prostate-Specific Antigen (PSA) assay; format: cell-based, human; conditions: Table 6
Description: Prostate-Specific Antigen (PSA) Assay: The evaluation of PSA levels secreted into the media was performed in parallel to the eGFP assay using the same plates.

[2] = Microsomal stability (half-life); format: in vitro ADME, human; conditions: for half-life: Table 6
[3] = biological target: T1, androgen receptor (AR) transcriptional activity (Homo sapiens, UniProt P10275, T878A); assay: eGFP cellular AR transcription assay; conditions: for AR inhibition activity: eGFP assay; for IC50-eGFP: Table 4, substitution on quinoline moiety of VPC-13566
T1 sequence (P10275 1-920 T878A): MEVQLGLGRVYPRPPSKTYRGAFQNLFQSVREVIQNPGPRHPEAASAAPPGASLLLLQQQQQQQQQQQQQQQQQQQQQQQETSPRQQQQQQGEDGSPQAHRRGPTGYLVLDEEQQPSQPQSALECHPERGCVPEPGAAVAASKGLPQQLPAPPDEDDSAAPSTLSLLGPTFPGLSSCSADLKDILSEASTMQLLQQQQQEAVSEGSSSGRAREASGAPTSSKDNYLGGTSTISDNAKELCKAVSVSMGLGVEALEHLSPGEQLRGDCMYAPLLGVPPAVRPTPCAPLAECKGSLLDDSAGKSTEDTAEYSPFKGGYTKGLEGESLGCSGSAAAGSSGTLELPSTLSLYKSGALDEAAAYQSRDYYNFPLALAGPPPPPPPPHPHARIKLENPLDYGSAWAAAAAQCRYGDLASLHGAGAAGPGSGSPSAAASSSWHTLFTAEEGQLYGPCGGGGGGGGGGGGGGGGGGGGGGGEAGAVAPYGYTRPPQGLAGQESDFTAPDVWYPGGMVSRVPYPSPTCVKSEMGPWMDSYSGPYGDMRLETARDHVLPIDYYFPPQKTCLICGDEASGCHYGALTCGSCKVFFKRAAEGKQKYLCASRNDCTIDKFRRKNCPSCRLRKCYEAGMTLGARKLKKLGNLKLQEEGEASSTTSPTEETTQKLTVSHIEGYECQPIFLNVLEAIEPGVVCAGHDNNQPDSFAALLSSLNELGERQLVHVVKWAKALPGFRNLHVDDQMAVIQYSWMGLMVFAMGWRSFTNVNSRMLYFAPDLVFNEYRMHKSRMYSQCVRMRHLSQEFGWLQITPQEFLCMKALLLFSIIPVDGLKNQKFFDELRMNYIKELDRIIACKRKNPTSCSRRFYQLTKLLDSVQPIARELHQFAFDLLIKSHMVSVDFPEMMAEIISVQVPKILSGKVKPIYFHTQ

[4] = test system: androgen-mediated transcription in LNCaP cells; assay: RNA-seq / GSEA on LNCaP cells; format: cell-based, human; conditions: for GSEA normalized enrichment score (canonical AR genes): 10 nM DHT; for differentially expressed genes / downregulated genes / upregulated genes: compared to vehicle; for p53 pathway: with androgen
LNCaP cells = assay: Cell viability / proliferation assay (Prestoblue), LNCaP; format: cell-based, human; conditions: 0.1 nM R1881
Description: (§1) After 3 days of treatment, cell density was measured using the Prestoblue™ assay (Thermo Fisher Scientific™).

PC3 (AR negative) cells = assay: Cell viability / proliferation assay (Prestoblue), PC3; format: cell-based, human
Description: as §1

[5] = Drug concentration in mouse blood and brain (HPLC, fluorescence); format: in vivo, mice (C57 Black 6)
Description: A Halo5 C18 column was used (3.0×50 mm, 5 μm particle size; injection volume: 1 μL) having a mobile phase A: 10% acetonitrile, 90% water, 10 mM NH4HCO3 and a mobile phase B: 80% acetonitrile, 20% water, 10 mM NH4HCO3, with a flow rate: 0.7 mL/min.
The dosing solutions were given to mice (C57 Black 6) by oral gavage at 8 μL per gram of body weight (rounded to the nearest 10 μL), corresponding to 30 mg/kg. After 3 h, the animals were euthanized, and then blood and brain samples were collected and stored at 4° C. until analysis.
Blood samples (clotted) were centrifuged at 9,000 RPM for 2 min×2. Aliquots of the serum (30 μL) were placed in 150 μL micro-centrifuge tubes and acetonitrile (30 μL) were added. The mixture was vortexed briefly and allowed to stand at room temperature for 30 min. Full brains were weighed into 2 mL micro-centrifuge tubes and equal amount of acetonitrile (w/v) was added. […] The samples were centrifuged at 9000 RPM for 2 min×2. The supernatants were transferred to HPLC sample vials with conical inserts, and then analyzed by HPLC.
All compounds were dosed orally to mice, and after 3 hours, the animals were euthanized and blood and brain samples were collected. Drug levels were analyzed by HPLC equipped with a fluorescence detector as described herein.

[6] = test system: chromatin binding of AR to enhancers near KLK3 and FKBP5; assay: ChIP-PCR of AR binding sites; format: cell-based
[7] = test system: nuclear accumulation of exogenous (293T) or endogenous (LNCaP) AR; assay: AR nuclear translocation; format: cell-based; conditions: 293T (exogenous) or LNCaP (endogenous), DHT
Excerpt: B) Heatmap of genes from the GSEA-MySigDB “Hallmark androgen response”. […] D) Nuclear translocation of exogenous (AR-eGFP in 293T) or endogenous (LNCaP) AR following treatment with DHT.

[8] = biological target: androgen binding site (ABS) of recombinant wild type LBD (Rattus norvegicus, UniProt P15207)
Chain of androgen binding site (ABS) of recombinant wild type LBD (P15207 651-882 limits assumed): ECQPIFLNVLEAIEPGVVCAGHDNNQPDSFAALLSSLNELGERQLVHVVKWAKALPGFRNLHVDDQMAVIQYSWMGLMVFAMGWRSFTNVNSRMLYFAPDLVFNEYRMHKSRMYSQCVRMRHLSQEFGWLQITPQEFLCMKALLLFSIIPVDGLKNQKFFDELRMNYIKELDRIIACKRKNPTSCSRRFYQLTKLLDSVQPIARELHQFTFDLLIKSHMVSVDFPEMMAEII

[9] = test system: AR protein-protein interactions on chromatin; assay: RIME of the AR interactome; conditions: DHT treated cells
[10] = test system: LNCaP xenograft castration-resistant mouse model; assay: Castration-resistant LNCaP xenograft: serum PSA and tumour growth; format: in vivo; conditions: oral treatment, listed as 13789 prodrug
Description: Assessment of Prostate […] Antigen and Tumour Growth for Castration-resistant LNCaP Xenografts: 6-8-Week-old nude mice (Harlan Sprague-Dawley) weighing 25-31 g were subcutaneously inoculated with LNCaP cells ([…] in BD Matrigel, BD Biosciences) at the posterior dorsal site. Tumor volume, body weight, and serum PSA levels were measured weekly. Mice were castrated when serum PSA levels reached 50 ng/ml. […] Calipers were used to measure the three perpendicular axes of each tumor to calculate the tumor volume.

[11] = Conversion of prodrug to parent drug in tissue homogenate; format: in vitro ADME; conditions: mouse small intestine tissue homogenate
[12] = Water solubility for dosing formulation; format: physicochemical; conditions: required concentration 3.75 mg/mL
Description: 13822 was water soluble and was formulated as plain aqueous solution at 3.75 mg/mL. […] A formulation screen was conducted to use various pharmaceutically acceptable surfactants and additives to develop a low organic solution or metastable heterogeneous suspension suitable for oral dosing.

[13] = human, microsomes, read-out: Half-life

Compound: CNC(=O)c1cccc2nc(-c3c[nH]c4c(F)c(F)c(F)cc34)ccc12 [Compound 13719]
IC50 ([1]; Homo sapiens, LNCaP): 0.13 µM

Compound: CNC(=O)c1c(F)ccc2nc(-c3c[nH]c4c(F)c(F)c(F)cc34)ccc12 [Compound 13796]
IC50 ([1]; Homo sapiens, LNCaP): 0.95 µM
IC50 [3]: 5.48 µM

Compound: CNC(=O)c1ccc(N2C(=S)N(c3ccc(C#N)c(C(F)(F)F)c3)C(=O)C2(C)C)cc1F [Enzalutamide, reference compound]
GSEA normalized enrichment score (canonical AR genes) [4]: −2.31
differentially expressed genes [4]: 586 genes
downregulated genes [4]: 372
upregulated genes [4]: 214
p53 pathway [4]: not observed

Compound: CC(C)NC(=O)c1cccc2nc(-c3c[nH]c4c(F)c(F)c(F)cc34)ccc12 [Compound 13789, N-isopropyl-2-(5,6,7-trifluoro-1H-indol-3-yl)quinoline-5-carboxamide]
IC50 ([1]; Homo sapiens, LNCaP): 0.08 µM
effect on growth of LNCaP cells (LNCaP cells): concentration-dependent inhibition of growth; also recorded: significant decrease in the growth
effect on growth of PC3 cells (PC3 (AR negative) cells): not with AR-independent PC3 cells; also recorded: did not exhibit any inhibitory effect
microsome stability [2]: good microsome stability
half-life [2]: 206 (206.26)
metabolic stability judged from polar peaks in chromatograms ([5]; serum and brain samples): metabolically more stable
GSEA normalized enrichment score (canonical AR genes) [4]: −3.33
differentially expressed genes [4]: 1514 genes
downregulated genes [4]: 967
upregulated genes [4]: 547
p53 pathway [4]: upregulation of the p53 pathway
chromatin binding of AR [6]: significantly reduced the chromatin binding of AR
nuclear accumulation of AR [7]: only marginally affected nuclear accumulation
% Disp. @ 1 uM (DHT displacement from the ABS site) ([8]; 1 uM): 4 ± 3.8%
ABS inhibition ([8]; 10 μM): no significant ABS inhibition
DHT displacement from ABS ([8]; various concentrations): Very little displacement
AR protein-protein interactions disrupted (of 112 enriched) [9]: 34

Compound: Fc1cc(Cl)cc2c(-c3ccc4ccccc4n3)c[nH]c12 [Compound 13641]
AR inhibition activity [3]: weaker or even inactive

Compound: O=C(NC1CC1)c1c(F)ccc2nc(-c3c[nH]c4c(F)c(F)c(F)cc34)ccc12 [Compound 13797]
IC50 ([1]; Homo sapiens, LNCaP): 1.5 µM
IC50 [3]: 1.98 µM

Compound: Cc1cccc2c(-c3ccc4ccccc4n3)c[nH]c12 [Compound 13566, 2-(7-Methyl-1H-indol-3-yl)quinoline]
blood concentration level ([5]; compared with 13789): much lower
penetration of the blood-brain-barrier ([5]; mice, 3 hour time point): significantly penetrated the blood-brain-barrier
solubility in water [12]: not soluble in water at the required concentration

Compound: CN(C)C(=O)c1cccc2nc(-c3c[nH]c4c(F)c(F)c(F)cc34)ccc12 [Compound 13791]
IC50 ([1]; Homo sapiens, LNCaP): > 10 µM
IC50 [3]: > 10 µM

Compound: Cc1ccc2c(-c3ccc4ccccc4n3)c[nH]c2c1F [Compound 13619]
AR inhibition activity [3]: weaker or even inactive

Compound: Cc1cccc2c(-c3ccc4c(O)cccc4n3)c[nH]c12 [Compound 13620]
IC50-eGFP [3]: inactive

Compound: Fc1cc2c(-c3ccc4c(-c5cncs5)cccc4n3)c[nH]c2c(F)c1F [Compound 13793, 5-(2-(5,6,7-Trifluoro-1H-indol-3-yl)quinolin-5-yl)thiazole]
IC50 ([1]; Homo sapiens, LNCaP): 0.33 µM
half-life [2, 13]: 1.73 h

Compound: Cc1cccc2c(-c3ccc4c(F)cccc4n3)c[nH]c12 [Compound 13623]
IC50-eGFP [3]: inactive

Compound: OC(c1cccc2nc(-c3c[nH]c4c(F)c(F)c(F)cc34)ccc12)C(F)(F)F (stereo not drawn) [Compound 13804]
IC50 [3]: 32 µM

Compound: Fc1cc2c(-c3ccc4c(-c5cnco5)cccc4n3)c[nH]c2c(F)c1F [Compound 13794]
IC50 ([1]; Homo sapiens, LNCaP): > 10 µM
IC50 [3]: > 10 µM

Compound: O=C(NC1CC1)c1cccc2nc(-c3c[nH]c4c(F)c(F)c(F)cc34)ccc12 [Compound 13795, N-Cyclopropyl-2-(5,6,7-trifluoro-1H-indol-3-yl)quinoline-5-carboxamide]
IC50 ([1]; Homo sapiens, LNCaP): 0.23 µM
microsome stability [2]: good microsome stability
half-life [2, 13]: 4.35 h

Further lines, with some results ahead:

IC50 ([1]; Homo sapiens, LNCaP): 0.16 µM
microsome stability [2]: good microsome stability
Compound: O=C(NCC1CC1)c1cccc2nc(-c3c[nH]c4c(F)c(F)c(F)cc34)ccc12 [Compound 13807, N-(Cyclopropylmethyl)-2-(5,6,7-trifluoro-1H-indol-3-yl)quinoline-5-carboxamide]

microsome stability [2]: good microsome stability
Compound: O=C(NCC(F)F)c1cccc2nc(-c3c[nH]c4c(F)c(F)c(F)cc34)ccc12 [Compound 13808, N-(2,2-Difluoroethyl)-2-(5,6,7-trifluoro-1H-indol-3-yl)quinoline-5-carboxamide]

IC50 ([1]; Homo sapiens, LNCaP): > 10 µM
IC50 [3]: > 10 µM
Compound: CC(C)NC(=O)c1c(F)ccc2nc(-c3c[nH]c4c(F)c(F)c(F)cc34)ccc12 [Compound 13802]

half-life [11]: ~2 h
solubility in water [12]: water soluble
Compound: CC(C)NC(=O)c1cccc2nc(-c3cn(COP(=O)(O)O)c4c(F)c(F)c(F)cc34)ccc12 [Compound 13822]
tumour volume / growth in xenograft ([10]; up to 5 weeks): reduces tumor volume; also recorded: inhibited tumour growth to levels comparable with enzalutamide treatment
serum PSA production in xenograft [10]: inhibits PSA production; also recorded: reducing serum PSA levels

IC50 [3]: > 10 µM
Compound: CN(C)C(=O)c1c(F)ccc2nc(-c3c[nH]c4c(F)c(F)c(F)cc34)ccc12 [Compound 13803]

IC50 [1]: > 10 µM
Compound: 2-(2-(5,6,7-Trifluoro-1H-indol-3-yl)quinolin-5-yl)thiazole [Compound 13801]

IC50 ([1]; Homo sapiens, LNCaP): 0.75 µM
IC50 [3]: 0.56 µM
Compound: Fc1cc2c(-c3ccc4c(-c5cncs5)c(F)ccc4n3)c[nH]c2c(F)c1F [Compound 13799]
